# In article PMC10698726 (Molecular Pharmaceutics, 2023):
# Where two headings read alike, the source gives them in different places.
# Columns and labels:
# OCT1 = molecular target: T1, OCT1 (Homo sapiens, UniProt O15245); assay: Inhibition of model substrate uptake in OCT1-overexpressing HEK293 cells; type: cell-based; set-up: expressed in transfected cells; host or cells: HEK293; details: for IC50: 2 μM ASP+ or ethambutol as model substrate; for IC50 / inhibition at 5 min, 20 μM: 5 min; for inhibition at 5 min, 20 μM / selectivity ratio at 5 min: human, OCT1-overexpressing HEK293 cells; for inhibition at 5 min, 20 μM: OCT1, 20 μM inhibitor; for selectivity ratio at 5 min: pH 7.4, ratio of the IC50 values of both isomers, label = isomer named in the cell (as a rule the one with the higher IC50), read-out: Stereoselectivity (x-fold for the named isomer)
# T1 sequence (O15245 1-554): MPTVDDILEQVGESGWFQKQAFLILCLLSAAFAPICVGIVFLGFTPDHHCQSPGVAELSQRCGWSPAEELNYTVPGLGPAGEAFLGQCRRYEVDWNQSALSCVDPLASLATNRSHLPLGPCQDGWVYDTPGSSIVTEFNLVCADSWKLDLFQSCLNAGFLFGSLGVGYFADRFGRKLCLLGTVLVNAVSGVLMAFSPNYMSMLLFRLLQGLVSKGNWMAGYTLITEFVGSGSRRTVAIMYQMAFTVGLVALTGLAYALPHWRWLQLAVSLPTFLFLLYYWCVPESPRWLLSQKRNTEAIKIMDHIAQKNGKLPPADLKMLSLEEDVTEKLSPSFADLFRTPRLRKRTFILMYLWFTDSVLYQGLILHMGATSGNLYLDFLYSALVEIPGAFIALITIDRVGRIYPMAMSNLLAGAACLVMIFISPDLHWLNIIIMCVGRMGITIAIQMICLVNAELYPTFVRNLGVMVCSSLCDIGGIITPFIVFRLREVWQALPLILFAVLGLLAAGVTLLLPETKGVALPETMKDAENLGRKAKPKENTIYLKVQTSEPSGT
# Description: (§1) Koepsell and Gorbulev (University of Würzburg, Germany).
# Fluorescence quantification was performed in technical duplicates.
# OCT3 = molecular target: T2, OCT3 (Homo sapiens, UniProt O75751); assay: Concentration-dependent uptake of model substrates, OCT3-overexpressing HEK293 cells; type: in vitro ADME; details: vmax over Km, this study
# T2 construct: expressed in transfected cells; host or cells: HEK293
# T2 sequence (O75751 1-556): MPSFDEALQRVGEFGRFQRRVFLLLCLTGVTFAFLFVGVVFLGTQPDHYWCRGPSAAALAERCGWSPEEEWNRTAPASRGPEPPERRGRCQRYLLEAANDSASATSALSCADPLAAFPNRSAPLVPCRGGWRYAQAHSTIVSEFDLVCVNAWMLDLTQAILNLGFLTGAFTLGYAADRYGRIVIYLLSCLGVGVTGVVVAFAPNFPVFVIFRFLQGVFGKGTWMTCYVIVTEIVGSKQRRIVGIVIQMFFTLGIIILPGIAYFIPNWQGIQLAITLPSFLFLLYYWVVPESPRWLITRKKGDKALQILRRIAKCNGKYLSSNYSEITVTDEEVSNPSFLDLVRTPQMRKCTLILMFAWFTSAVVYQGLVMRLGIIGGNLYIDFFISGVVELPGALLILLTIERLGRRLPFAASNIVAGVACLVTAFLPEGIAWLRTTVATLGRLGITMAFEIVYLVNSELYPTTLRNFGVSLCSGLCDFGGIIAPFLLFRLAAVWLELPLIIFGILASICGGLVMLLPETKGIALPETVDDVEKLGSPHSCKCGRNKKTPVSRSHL
# Description: as §1
# Prior to inhibition studies, the used model substrates were validated in concentration-dependent uptake experiments if no literature data were available (Table S2 and Figures S2 and S3). Thereby, we ensured that the model substrate concentration used in the subsequent inhibition experiments was sufficiently below the Km value of its uptake kinetics. […] On the day of the experiment, the cells were washed once with prewarmed to 37 °C HBSS (Thermo Fisher Scientific, Darmstadt, Germany) supplemented with 10 mM HEPES and pH adjusted to 7.4 (Sigma-Aldrich)—hereafter termed HBSS+. For concentration-dependent experiments, the cells were incubated with increasing substrate concentrations for 2 min. Uptake was terminated by adding ice-cold HBSS+. Afterward, the cells were washed twice with ice-cold HBSS+, and cell lysis was done with 80% (v/v) acetonitrile (LGC Standards, Wesel, Germany) to which an internal standard for eventual LC–MS/MS analysis had been added. Intracellularly accumulated substrates were then quantified by LC–MS/MS analysis, and calibration was performed with known concentrations of the respective substances. All uptake data were normalized to the number of seeded cells by measuring the total protein content in radioimmunoprecipitation assay buffer-lysed cells in a bicinchoninic acid assay.[29]
# [1] = pH 7.4, probe (S,S)-ethambutol (2 μM), (S,S)-Ethambutol inhibition [%], 2 μM (S,S)-ethambutol
# [2] = pH 7.4, probe ASP+ (2 μM), 2 μM ASP+, mean of three experiments, read-out: ASP+ inhibition [%]
# [3] = pH 7.4, probe sumatriptan (2 μM), 2 μM sumatriptan, read-out: Sumatriptan inhibition [%]
"IC50 (OCT1; IC50, OCT1, Table S5) [µM]","inhibition at 5 min, 20 μM (OCT1; [1]) [%]","inhibition at 5 min, 20 μM (OCT1; [2]) [%]","inhibition at 5 min, 20 μM (OCT1; [3]) [%]","IC50 (OCT1; OCT1, Table S5, read-out: IC50) [µM]",Clint ± SEM (OCT3),SMILES,"selectivity ratio at 5 min (OCT1; OCT1, Table S5)"
171,93.7,49.1,73,,,CCN(CC)CC#CCOC(=O)[C@](O)(c1ccccc1)C1CCCCC1 [(R)-Oxybutynine],1.2
,34.9,12.1,35.6,32.2,,CCCN[C@H]1CCc2nc(N)sc2C1 [(S)-Pramipexole],1.6
,26.9,10,44.5,,24.0,CN(C)CCc1c[nH]c2ccc(C[C@H]3COC(=O)N3)cc12 [(S)-Zolmitriptan],
